According to US12084445B2, “Broad-spectrum carbapenems” (VenatoRx Pharmaceuticals, Inc., priority 2018, dated 2024):
Like-named read-outs stand apart in the source and are kept apart here.

What was measured:
Assay type in all cases: cell-based
[1] = system: S. aureus ATCC 29213 (methicillin sensitive); assay: broth microdilution MIC assay, S. aureus ATCC 29213; details: Staphylococcus aureus, ATCC 29213 / MSSA; Table 3; S. aureus 29213 (MSSA); read-out: S. aureus 29213 (MSSA) MIC
Method: (§1) To determine the ability of test compounds to potentiate the inhibition of the growth of bacterial strains, classic cell-based broth microdilution MIC assays were employed. MIC assays are performed according to CLSI methods except where otherwise noted (CLSI, 2011 and CLSI, 2009). The reference strains S. aureus ATCC 29213 (methicillin sensitive), S. aureus ATCC 33591 (methicillin-resistant), E. coli ATCC 25922 (wild-type/QC strain), P. aeruginosa ATCC 27853 (wild-type/QC strain), and the clinical isolate P. aeruginosa PA 8 were used to determine the ability of the exemplary carbapenem compounds to inhibit bacterial growth. An expanded panel of methicillin resistance S. aureus (MRSA) and Pseudomonas was also used to determine the ability of exemplary carbapenem compounds to inhibit bacterial growth across a broader representation of those species. To determine activity in MRSA and in addition to S. aureus ATCC 33591, S. aureus USA 300, USA 400 and USA 600, some of the most common clones found to cause human infection, were also used. To further gauge the impact on the carbapenem compounds due to various resistance mechanisms in Pseudomonas, the following strains were included: P. aeruginosa 35151 (hyper-permeable strain), P. aeruginosa AmexAB-OprM (an efflux pump knockout), and P. aeruginosa PA 3 (a clinical isolate of reduced carbapenem susceptibility). Briefly, cryo-preserved bacterial cultures of clinical strains are streaked for isolation on appropriate agar medium, in this case Mueller Hinton II agar. Following incubation to allow formation of colonies, these plates are sealed with parafilm and stored refrigerated for up to two weeks. For preparation of assay inocula and to ensure low variability, at least 5 colonies are picked from the agar plates with an inoculating loop and aseptically transferred to a culture tube containing 3 mL of Mueller-Hinton Broth (supplemented with divalent cations to required levels based on Manufacturers' specification). The broth culture is grown for 3-5 hours at 37° C. with shaking at 200 rpm. Meanwhile, 2-fold serial dilutions of test compounds are conducted in a 96 well plate with a final volume of 75 μL per well at 2-fold the final desired concentration. After the dilution plates are set up the growing cultures are then diluted in a cuvette containing MH II broth and the optical density is measured at 600 nm. Inocula are diluted such that 75 μL of this culture in Mueller-Hinton Broth results in a starting bacterial concentration of 5×10^5 CFU/mL when added to the dilution plates. The plates are incubated 16-20 hours at 37° C. The MIC is read visually as the lowest concentration well with no bacterial growth.
(§2) Representative results are shown in Tables 3, 4, and 5 where A represents an MIC>32 μg/mL, B represents an MIC between 8 and 32 μg/mL inclusive, C represents an MIC between 1 and 4 μg/mL inclusive, and D represents an MIC of <1 μg/mL. NT=Not Tested.

[2] = system: S. aureus ATCC 33591 (methicillin-resistant); assay: broth microdilution MIC assay, S. aureus ATCC 33591; details: Staphylococcus aureus
In short: (§3)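 Colonies from Mueller Hinton II agar → MH broth (divalent cations supplemented), 37 °C, 200 rpm, 3-5 h → OD600-adjusted to 5×10^5 CFU/mL final → 2-fold serial compound dilutions → 16-20 h, 37 °C → visual MIC.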

[3] = system: E. coli ATCC 25922 (wild-type/QC strain); assay: broth microdilution MIC assay, E. coli ATCC 25922; details: Escherichia coli, ATCC25922, E. coli 25922, read-out: E. coli 25922 MIC
In short: as §3

[4] = system: P. aeruginosa ATCC 27853 (wild-type/QC strain); assay: broth microdilution MIC assay, P. aeruginosa ATCC 27853; details: Pseudomonas aeruginosa, ATCC27853, P. aeruginosa 27853, read-out: P. aeruginosa 27853 MIC
In short: as §3

[5] = system: clinical isolate P. aeruginosa PA 8; assay: broth microdilution MIC assay, P. aeruginosa PA 8; details: Pseudomonas aeruginosa, P. aeruginosa PA8
In short: as §3

S. aureus USA 300 = assay: broth microdilution MIC assay, S. aureus USA 300; details: Staphylococcus aureus; Table 4; S. aureus USA300; read-out: S. aureus USA300 MIC
In short: as §3

S. aureus USA400 = assay: broth microdilution MIC assay, S. aureus USA 400; details: Staphylococcus aureus, Table 4
Method: as §1, §2

S. aureus USA600 = assay: broth microdilution MIC assay, S. aureus USA 600; details: Staphylococcus aureus; Table 4; S. aureus USA600; read-out: S. aureus USA600 MIC
In short: as §3

[6] = system: P. aeruginosa 35151 (hyper-permeable strain); assay: broth microdilution MIC assay, P. aeruginosa 35151; details: Pseudomonas aeruginosa, read-out: P. aeruginosa 35151 MIC
In short: as §3

[7] = system: P. aeruginosa ΔmexAB-OprM (an efflux pump knockout); assay: broth microdilution MIC assay, P. aeruginosa ΔmexAB-OprM; details: Pseudomonas aeruginosa, 20 h, read-out: P. aeruginosa ΔmexAB-OprM MIC
In short: as §3

[8] = system: P. aeruginosa PA 3 (a clinical isolate of reduced carbapenem susceptibility); assay: broth microdilution MIC assay, P. aeruginosa PA 3; details: Pseudomonas aeruginosa; Table 5; P. aeruginosa PA3
Method: as §1, §2

[9] = ATCC 33591 / MRSA, Table 3, S. aureus 33591 (MRSA), read-out: S. aureus 33591 (MRSA) MIC
[10] = ATCC33591, Table 4, S. aureus 33591, read-out: S. aureus 33591 MIC

SMILES: C[C@@H](O)[C@H]1C(=O)N2C(C(=O)O)=C(S[C@@H]3CCN(CC4CCN(C(=N)N)CC4)C3)[C@H](C)[C@H]12 [Example 35, (4R,5S,6S)-3-(((R)-1-((1-carbamimidoylpiperidin-4-yl)methyl)pyrrolidin-3-yl)thio)-6-((R)-1-hydroxyethyl)-4-methyl-7-oxo-1-azabicyclo[3.2.0]hept-2-ene-2-carboxylic acid]
- MIC [1]: 1 to 4 mg/L
- MIC [2, 9]: 1 to 4 mg/L
- MIC [2, 10]: 1 to 4 mg/L
- MIC ([3]; Table 3): < 1 mg/L
- MIC ([3]; Table 4): < 1 mg/L
- MIC ([4]; Table 3): 1 to 4 mg/L
- MIC ([4]; Table 5): 1 to 4 mg/L
- MIC ([5]; Table 3): 1 to 4 mg/L
- MIC ([5]; Table 5): 1 to 4 mg/L
- MIC (S. aureus USA 300): < 1 mg/L
- MIC (S. aureus USA400): 1 to 4 mg/L
- MIC (S. aureus USA600): < 1 mg/L
- MIC [6]: < 1 mg/L
- MIC [7]: < 1 mg/L
- MIC [8]: 8 to 32 mg/L

SMILES: C[C@@H](O)[C@H]1C(=O)N2C(C(=O)O)=C(S[C@@H]3CCN(CCCN)C3)[C@H](C)[C@H]12 [Example 36, (4R,5S,6S)-3-(((R)-1-(3-aminopropyl)pyrrolidin-3-yl)thio)-6-((R)-1-hydroxyethyl)-4-methyl-7-oxo-1-azabicyclo[3.2.0]hept-2-ene-2-carboxylic acid]
- MIC [2, 9]: > 32 mg/L
- MIC [2, 10]: > 32 mg/L
- MIC ([3]; Table 3): < 1 mg/L
- MIC ([3]; Table 4): < 1 mg/L
- MIC ([4]; Table 3): 8 to 32 mg/L
- MIC ([4]; Table 5): 8 to 32 mg/L
- MIC ([5]; Table 3): 8 to 32 mg/L
- MIC ([5]; Table 5): 8 to 32 mg/L
- MIC (S. aureus USA 300): 8 to 32 mg/L
- MIC (S. aureus USA400): 8 to 32 mg/L
- MIC [8]: > 32 mg/L

SMILES: CNCCCCN1CC[C@@H](SC2=C(C(=O)O)N3C(=O)[C@H]([C@@H](C)O)[C@H]3[C@H]2C)C1 [Example 37, (4R,5S,6S)-6-((R)-1-hydroxyethyl)-4-methyl-3-(((R)-1-(4-(methylamino)butyl)pyrrolidin-3-yl)thio)-7-oxo-1-azabicyclo[3.2.0]hept-2-ene-2-carboxylic acid]
- MIC [2, 9]: 8 to 32 mg/L
- MIC [2, 10]: 8 to 32 mg/L
- MIC ([3]; Table 3): < 1 mg/L
- MIC ([3]; Table 4): < 1 mg/L
- MIC ([4]; Table 3): 1 to 4 mg/L
- MIC ([4]; Table 5): 1 to 4 mg/L
- MIC ([5]; Table 3): 8 to 32 mg/L
- MIC ([5]; Table 5): 1 to 4 mg/L
- MIC (S. aureus USA 300): 8 to 32 mg/L
- MIC (S. aureus USA400): 1 to 4 mg/L
- MIC [8]: 8 to 32 mg/L

SMILES: C[C@@H](O)[C@H]1C(=O)N2C(C(=O)O)=C(S[C@@H]3CCN(C4CCC(N)(CN)CC4)C3)[C@H](C)[C@H]12 (stereo partly drawn) [Example 38, (4R,5S,6S)-3-(((R)-1-(4-amino-4-(aminomethyl)cyclohexyl)pyrrolidin-3-yl)thio)-6-((R)-1-hydroxyethyl)-4-methyl-7-oxo-1-azabicyclo[3.2.0]hept-2-ene-2-carboxylic acid]
- MIC [2, 9]: 8 to 32 mg/L
- MIC [2, 10]: 8 to 32 mg/L
- MIC ([3]; Table 3): < 1 mg/L
- MIC ([3]; Table 4): < 1 mg/L
- MIC ([4]; Table 3): 8 to 32 mg/L
- MIC ([4]; Table 5): 8 to 32 mg/L
- MIC ([5]; Table 3): 8 to 32 mg/L
- MIC ([5]; Table 5): 8 to 32 mg/L
- MIC (S. aureus USA 300): 8 to 32 mg/L
- MIC (S. aureus USA400): 1 to 4 mg/L
- MIC [8]: 8 to 32 mg/L

SMILES: C[C@@H](O)[C@H]1C(=O)N2C(C(=O)O)=C(SC3CN(CC4CCNCC4)C3)[C@H](C)[C@H]12 [Example 42, (4R,5S,6S)-6-((R)-1-hydroxyethyl)-4-methyl-7-oxo-3-((1-(piperidin-4-ylmethyl)azetidin-3-yl)thio)-1-azabicyclo[3.2.0]hept-2-ene-2-carboxylic acid]
- MIC [2, 10]: 1 to 4 mg/L
- MIC ([3]; Table 4): < 1 mg/L
- MIC ([4]; Table 5): 1 to 4 mg/L
- MIC ([5]; Table 5): 1 to 4 mg/L
- MIC (S. aureus USA 300): 1 to 4 mg/L
- MIC (S. aureus USA400): 1 to 4 mg/L
- MIC (S. aureus USA600): 1 to 4 mg/L
- MIC [6]: < 1 mg/L
- MIC [7]: 1 to 4 mg/L
- MIC [8]: 8 to 32 mg/L
